# Patent US11000033B2, “Ketone or oxime compound, and herbicide” (NISSAN CHEMICAL CORPORATION, priority 2014, dated 2021)
# Columns and labels:
# Assay type in all cases: in vivo
# [1] = system: Scirpus juncoides; test: Test Example 2: herbicidal activity, application during weed generation in submerged conditions (symbol B); conditions: Table 23; application herbicide amount 320 g/ha; grade 0-5 by criteria of Test Example 1
# How it was run: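 Submerged alluvial soil (4 cm) sown with mixed seed; greenhouse 25–30° C. 1–2 leaf: diluted emulsion onto water surface, preset dose. Visual score, 3 wk.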
# [2] = system: Leptochloa chinensis; test: Test Example 3: herbicidal effect by foliage application, Wagner pot (symbol D); conditions: application herbicide amount 320 g/ha
# How it was run: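 Steps: fill pot with alluvial soil; add water to 0.1–0.5 cm depth; sow weed and rice seed; grow 14 days at 25–30 °C; spray diluted emulsion over the leaves; rate effect after 3 weeks.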
# [3] = system: directly sowed rice plant; test: Test Example 3: effect on crop by foliage application, Wagner pot (symbol b); conditions: application herbicide amount 320 g/ha
# How it was run: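 Plants are raised from seed in flooded paddy conditions: water stands 0.1–0.5 cm over alluvial soil, and the pot is kept in a greenhouse at 25–30 °C. Species sown are barnyardgrass (E. crus-galli var. crus-galli), Leptochloa chinensis, Cyperus difformis and rice.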
# [4] = system: Digitaria ciliaris; test: Test Example 4: herbicidal effect by soil treatment (symbol F); conditions: for F: Digitaria ciliaris, herbicidal effect grade: 320 g/ha; for F (Digitaria ciliaris) herbicidal effect grade: application herbicide amount 320 g/ha
# How it was run: (§1)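 Seeds were sown in sterilized diluvial soil, covered with about 1.5 cm of soil, and the soil surface was sprayed with a water-diluted emulsion of the compound at a predetermined rate. Plants grew in a greenhouse at 25° C. to 30° C.; effects were scored visually 3 weeks after application.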
# [5] = system: Avena fatua; test: Test Example 4: herbicidal effect by soil treatment (symbol I); conditions: for I: Avena fatua, herbicidal effect grade: 320 g/ha; for I (Avena fatua) herbicidal effect grade: application herbicide amount 320 g/ha
# How it was run: as §1
# [6] = system: Abutilon theophrasti; test: Test Example 4: herbicidal effect by soil treatment (symbol M); conditions: for M: Abutilon theophrasti, herbicidal effect grade: 320 g/ha; for M (Abutilon theophrasti) herbicidal effect grade: application herbicide amount 320 g/ha
# How it was run: as §1
# [7] = system: Stellaria media; test: Test Example 4: herbicidal effect by soil treatment (symbol P); conditions: for P: Stellaria media, herbicidal effect grade: 320 g/ha; for P (Stellaria media) herbicidal effect grade: application herbicide amount 320 g/ha
# How it was run: as §1
# [8] = system: corn; test: Test Example 4: effect on crop by soil treatment (symbol c); conditions: for c: corn, effect grade on crop: 320 g/ha; for c (corn) effect on crop grade: application herbicide amount 320 g/ha
# How it was run: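 Diluvial soil (sterilized) in boxes; seeds placed spot-wise alongside weed species; ~1.5 cm covering soil. Greenhouse, 25–30° C.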
# [9] = system: beet; test: Test Example 4: effect on crop by soil treatment (symbol f); conditions: for f: beet, effect grade on crop: 320 g/ha; for f (beet) effect on crop grade: application herbicide amount 320 g/ha
# How it was run: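 Crop seed is sown in spots together with several weed species in a box of sterilized diluvial soil. It is covered by about 1.5 cm of soil and kept in a greenhouse held between 25° C. and 30° C.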
# [10] = system: Avena fatua; test: Test Example 5: herbicidal effect by foliage application, plastic box (symbol I); conditions: 320 g/ha, 3 weeks after application
# How it was run: (§2)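 Leaf-applied emulsion, water-diluted to a preset herbicide dose, on two-week-old seedlings raised in a 25° C. to 30° C. greenhouse; injury rated at 3 weeks using earlier criteria.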
# [11] = system: Lolium multiflorum Lam.; test: Test Example 5: herbicidal effect by foliage application, plastic box (symbol K); conditions: 320 g/ha, 3 weeks after application
# How it was run: as §2
# [12] = system: Abutilon theophrasti; test: Test Example 5: herbicidal effect by foliage application, plastic box (symbol M); conditions: 320 g/ha, 3 weeks after application
# How it was run: as §2
# [13] = system: wheat; test: Test Example 5: effect on crop by foliage application, plastic box (symbol e); conditions: 320 g/ha, 3 weeks after application
# How it was run: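 In a plastic box 7 cm deep filled with sterilized diluvial soil, seeds of crops and weeds such as Digitaria ciliaris, Avena fatua and Amaranthus retroflexus are sown in spots and covered with about 1.5 cm of soil before greenhouse growth at 25–30° C.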
SMILES,"Herbicidal effect grade, B: Scirpus juncoides [1]","herbicidal effect on D (Leptochloa chinensis), grade 0-5 [2]","effect on crop b (directly sowed rice plant), grade 0-5 [3]","F: Digitaria ciliaris, herbicidal effect grade [4]","I: Avena fatua, herbicidal effect grade [5]","M: Abutilon theophrasti, herbicidal effect grade [6]","P: Stellaria media, herbicidal effect grade [7]","c: corn, effect grade on crop [8]","f: beet, effect grade on crop [9]","I: Avena fatua, herbicidal effect (criteria 0-5) [10]","K: Lolium multiflorum Lam., herbicidal effect (criteria 0-5) [11]","M: Abutilon theophrasti, herbicidal effect (criteria 0-5) [12]","e: wheat, effect on crop (criteria 0-5) [13]",F (Digitaria ciliaris) herbicidal effect grade [4],I (Avena fatua) herbicidal effect grade [5],M (Abutilon theophrasti) herbicidal effect grade [6],P (Stellaria media) herbicidal effect grade [7],c (corn) effect on crop grade [8],f (beet) effect on crop grade [9],"I: Avena fatua, herbicidal effect grade [10]",also measured
CON=C(C)CC1CC(OC(=O)COc2ccc(Br)cc2)=C(c2c(C)cc(C)cc2C)C1=O (stereo not drawn) [1-081],4 (Herbicidal ratio of 70% or higher and lower than 90%),5 (Herbicidal ratio of 90% or more (almost completely withered)),5 (Herbicidal ratio of 90% or more (almost completely withered)),5 (Herbicidal ratio of 90% or more (almost completely withered)),3 (Herbicidal ratio of 40% or higher and lower than 70%),4 (Herbicidal ratio of 70% or higher and lower than 90%),0 (Herbicidal ratio of 5% or lower (almost no effect)),4 (Herbicidal ratio of 70% or higher and lower than 90%),0 (Herbicidal ratio of 5% or lower (almost no effect)),5 (Herbicidal ratio of 90% or more (almost completely withered)),5 (Herbicidal ratio of 90% or more (almost completely withered)),4 (Herbicidal ratio of 70% or higher and lower than 90%),4 (Herbicidal ratio of 70% or higher and lower than 90%),–,–,–,–,–,–,–,–
CON=C(C)CC1CC(OC(=O)C(C)(C)Oc2ccccc2Cl)=C(c2c(C)cc(C)cc2C)C1=O (stereo not drawn) [1-064],4 (Herbicidal ratio of 70% or higher and lower than 90%),5 (Herbicidal ratio of 90% or more (almost completely withered)),5 (Herbicidal ratio of 90% or more (almost completely withered)),–,–,–,–,–,–,–,–,–,–,5 (Herbicidal ratio of 90% or more (almost completely withered)),3 (Herbicidal ratio of 40% or higher and lower than 70%),3 (Herbicidal ratio of 40% or higher and lower than 70%),0 (Herbicidal ratio of 5% or lower (almost no effect)),5 (Herbicidal ratio of 90% or more (almost completely withered)),0 (Herbicidal ratio of 5% or lower (almost no effect)),5 (Herbicidal ratio of 90% or more (almost completely withered)),"K: Lolium multiflorum Lam., herbicidal effect grade [11]: 3 (Herbicidal ratio of 40% or higher and lower than 70%); M: Abutilon theophrasti, herbicidal effect grade [12]: 4 (Herbicidal ratio of 70% or higher and lower than 90%); e: wheat, effect on crop grade [13]: 5 (Herbicidal ratio of 90% or more (almost completely withered))"
CON=C(CC1CC(O)=C(c2c(C)cc(C)cc2C)C1=O)C1CCCCC1 (stereo not drawn) [1-085],0 (Herbicidal ratio of 5% or lower (almost no effect)),4 (Herbicidal ratio of 70% or higher and lower than 90%),5 (Herbicidal ratio of 90% or more (almost completely withered)),0 (Herbicidal ratio of 5% or lower (almost no effect)),0 (Herbicidal ratio of 5% or lower (almost no effect)),0 (Herbicidal ratio of 5% or lower (almost no effect)),0 (Herbicidal ratio of 5% or lower (almost no effect)),0 (Herbicidal ratio of 5% or lower (almost no effect)),0 (Herbicidal ratio of 5% or lower (almost no effect)),3 (Herbicidal ratio of 40% or higher and lower than 70%),3 (Herbicidal ratio of 40% or higher and lower than 70%),0 (Herbicidal ratio of 5% or lower (almost no effect)),3 (Herbicidal ratio of 40% or higher and lower than 70%),–,–,–,–,–,–,–,–
CON=C(C)CC1CC(OC(=O)COc2ccc3ccccc3c2)=C(c2c(C)cc(C)cc2C)C1=O (stereo not drawn) [1-083],4 (Herbicidal ratio of 70% or higher and lower than 90%),5 (Herbicidal ratio of 90% or more (almost completely withered)),3 (Herbicidal ratio of 40% or higher and lower than 70%),5 (Herbicidal ratio of 90% or more (almost completely withered)),3 (Herbicidal ratio of 40% or higher and lower than 70%),4 (Herbicidal ratio of 70% or higher and lower than 90%),0 (Herbicidal ratio of 5% or lower (almost no effect)),4 (Herbicidal ratio of 70% or higher and lower than 90%),0 (Herbicidal ratio of 5% or lower (almost no effect)),5 (Herbicidal ratio of 90% or more (almost completely withered)),5 (Herbicidal ratio of 90% or more (almost completely withered)),4 (Herbicidal ratio of 70% or higher and lower than 90%),5 (Herbicidal ratio of 90% or more (almost completely withered)),–,–,–,–,–,–,–,–
CON=C(C)CC1CC(OC(=O)C(C)(C)Oc2ccc(Cl)cc2)=C(c2c(C)cc(C)cc2C)C1=O (stereo not drawn) [1-051],5 (Herbicidal ratio of 90% or more (almost completely withered)),5 (Herbicidal ratio of 90% or more (almost completely withered)),5 (Herbicidal ratio of 90% or more (almost completely withered)),–,–,–,–,–,–,–,–,–,–,5 (Herbicidal ratio of 90% or more (almost completely withered)),3 (Herbicidal ratio of 40% or higher and lower than 70%),5 (Herbicidal ratio of 90% or more (almost completely withered)),0 (Herbicidal ratio of 5% or lower (almost no effect)),4 (Herbicidal ratio of 70% or higher and lower than 90%),0 (Herbicidal ratio of 5% or lower (almost no effect)),5 (Herbicidal ratio of 90% or more (almost completely withered)),"K: Lolium multiflorum Lam., herbicidal effect grade [11]: 5 (Herbicidal ratio of 90% or more (almost completely withered)); M: Abutilon theophrasti, herbicidal effect grade [12]: 4 (Herbicidal ratio of 70% or higher and lower than 90%); e: wheat, effect on crop grade [13]: 5 (Herbicidal ratio of 90% or more (almost completely withered))"
CON=C(CC1CC(O)=C(c2c(C)cc(C)cc2C)C1=O)C(C)(C)C (stereo not drawn) [1-059],0 (Herbicidal ratio of 5% or lower (almost no effect)),1 (Herbicidal ratio of 5% or higher and lower than 20%),5 (Herbicidal ratio of 90% or more (almost completely withered)),–,–,–,–,–,–,–,–,–,–,4 (Herbicidal ratio of 70% or higher and lower than 90%),0 (Herbicidal ratio of 5% or lower (almost no effect)),1 (Herbicidal ratio of 5% or higher and lower than 20%),0 (Herbicidal ratio of 5% or lower (almost no effect)),3 (Herbicidal ratio of 40% or higher and lower than 70%),0 (Herbicidal ratio of 5% or lower (almost no effect)),4 (Herbicidal ratio of 70% or higher and lower than 90%),"K: Lolium multiflorum Lam., herbicidal effect grade [11]: 3 (Herbicidal ratio of 40% or higher and lower than 70%); M: Abutilon theophrasti, herbicidal effect grade [12]: 0 (Herbicidal ratio of 5% or lower (almost no effect)); e: wheat, effect on crop grade [13]: 0 (Herbicidal ratio of 5% or lower (almost no effect))"
